We go through nine compounds from article PMC3839116 (Bioorganic & medicinal chemistry, 2012).

Assay [1] has as its target T1, vcASADH (Vibrio cholerae serotype O1, UniProt Q9KQG2).
T1 sequence (Q9KQG2 1-370): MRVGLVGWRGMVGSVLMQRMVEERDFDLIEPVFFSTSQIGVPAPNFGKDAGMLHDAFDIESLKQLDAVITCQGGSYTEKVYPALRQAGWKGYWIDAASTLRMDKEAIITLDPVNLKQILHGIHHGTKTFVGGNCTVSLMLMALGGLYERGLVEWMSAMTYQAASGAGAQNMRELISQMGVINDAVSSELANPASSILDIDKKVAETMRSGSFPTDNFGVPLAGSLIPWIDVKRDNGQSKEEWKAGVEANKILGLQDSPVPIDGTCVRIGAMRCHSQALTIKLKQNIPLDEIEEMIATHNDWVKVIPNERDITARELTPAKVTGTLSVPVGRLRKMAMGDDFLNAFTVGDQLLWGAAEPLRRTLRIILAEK
In words: More thorough kinetic analysis, inhibitor varied against substrate ASA. Particulars: against the substrate ASA. The class given is biochemical.

Assay [2] addresses T1, vcASADH. The assay can be described thus: ASADH enzyme kinetic assay.
A further assay addresses T2, spASADH (Streptococcus pneumoniae, UniProt Q8DQ00).
T2 sequence (Q8DQ00 1-358): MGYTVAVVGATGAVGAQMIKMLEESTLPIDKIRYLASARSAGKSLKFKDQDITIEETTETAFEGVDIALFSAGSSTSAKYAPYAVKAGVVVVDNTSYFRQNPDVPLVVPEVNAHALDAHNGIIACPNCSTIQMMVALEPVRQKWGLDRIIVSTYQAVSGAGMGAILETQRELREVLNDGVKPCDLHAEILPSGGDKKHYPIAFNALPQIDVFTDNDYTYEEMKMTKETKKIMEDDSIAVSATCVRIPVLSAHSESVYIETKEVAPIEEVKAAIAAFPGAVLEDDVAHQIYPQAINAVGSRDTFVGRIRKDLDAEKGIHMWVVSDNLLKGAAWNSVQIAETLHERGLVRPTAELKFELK
The assay can be described thus: ASADH enzyme kinetic assay. Particulars: for ligand efficiency: enzyme form not stated; for fold increase in binding affinity: relative to M11, M9: enzyme form not stated, M14: spASADH.

Take `Cn1c(=O)n(C)c2cc([N+](=O)[O-])ccc21` [Compound M14m, 4-Nitro-N,N-dimethylbenzimidazolinone]: on vcASADH [1], the inhibition type result is listed as “competitive inhibitors”. At vcASADH [2], this compound gave a Ki of 0.13 ± 0.02 mM.
`COC(=O)c1ccc([N+](=O)[O-])cn1` [Compound M6m, 5-Nitropyridine-2-methylcarboxylate] gave a Ki on vcASADH [2] greater than 20 mM.
On vcASADH [2], `COC(=O)c1ccc(C(=O)OC)nc1` [Compound M7m, Pyridine-2,5-dimethylcarboxylate] displayed a Ki greater than 20 mM.
As to `O=C(O)c1ccc(C(=O)O)cc1` [1,4-benzenedicarboxylate, reference compound], the “affinity for vcASADH (in words)” value at vcASADH [2] is listed as “no affinity”. On spASADH, the “affinity for spASADH (in words)” value is “no affinity”.
Regarding `O=C1NC(=O)c2cc([N+](=O)[O-])c(Cl)cc21` [Compound M9], the inhibition type result against vcASADH [1] is “competitive inhibitors”. For the same compound, at spASADH, the ligand efficiency stood at 0.35 kcal/mol/heavy atom and the “fold increase in binding affinity” value was roughly 10 fold.
For `COC(=O)c1cc(C(=O)Nc2ccc([N+](=O)[O-])cc2)cc(C(=O)OC)c1` [Compound M17m, 5-[[(4-Nitrophenyl)amino]carbonyl]-1,3-benzenedimethylcarboxylate], on vcASADH [2], the Ki is greater than 20 mM.
As for `O=c1[nH]c2ccc([N+](=O)[O-])cc2[nH]1` [Compound M14, 5-nitro-2-benzimidazolinone], the “fold increase in binding affinity” value at spASADH is given as roughly 10 fold.
In turn, `O=C(O)c1cc(C(=O)O)cc(C(=O)Nc2ccc([N+](=O)[O-])cc2)c1` [Compound M17] gave a ligand efficiency on spASADH of 0.22 kcal/mol/heavy atom.
Regarding `CCN1C(=O)c2ccc([N+](=O)[O-])cc2C1=O` [Compound M11e, 4-Nitro-N-ethylphthalimide], on vcASADH [2], the Ki is greater than 4 mM and the “affinity for vcASADH (in words)” value is listed as “no affinity”. The “affinity for spASADH (in words)” value at spASADH was “no affinity”.
